This note sets out measurements from ChEMBL document CHEMBL1201862, “PubChem BioAssay data set” (2004).

Each structure is given as a SMILES string.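 Results reflect a 48-hour exposure of cells in 96-well plates to compound at five concentrations. Here, GI50 denotes the concentration required for 50% inhibition of growth.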 The source made the active and inactive calls. Rule as the data show it: active = GI50 up to about 1.1 µM and inactive = higher. Bounds are passed on as bounds.

Among the test systems are MCF7; HCT-116; NCI-H460; SF-295; CAKI-1; SR; M14; HOP-92; T47D; A549; UO-31; HOP-62; SK-MEL-5; MDA-N; DU-145; SK-OV-3; SN12C; SK-MEL-2; SF-268; 786-0.
What all share (assay): NCI tumour cell line growth inhibition, 48 h

For the compound `CC1(C)CC[C@]2(C(=O)O)CC[C@]3(C)C(=CC[C@@H]4[C@@]5(C)CC[C@H](OC6OC(CO)C(O)C(O)C6OC6OC(CO)C(O)C(O)C6O)C(C)(C)[C@@H]5CC[C@]43C)[C@@H]2C1` (stereo not given in full), the GI50 in the assay with MCF7 was 19.6 µM (inactive); in the assay on HCT-116, 17.1 µM (inactive); with NCI-H460, 21 µM (inactive); in the assay with SF-295, 18.8 µM (inactive); with CAKI-1, 19.5 µM (inactive); in the assay with SR, 22.5 µM (inactive). Further, the GI50 in the assay on M14 was 16.2 µM (inactive); in the assay with HOP-92, 17.6 µM (inactive); in the assay with T47D it was 21.3 µM (inactive); in the assay with A549, 18.3 µM (inactive); with UO-31, 20.6 µM (inactive); with HOP-62 it was 17.8 µM (inactive). The GI50 in the assay on SK-MEL-5 was 19 µM (inactive); in the assay with MDA-N, 19.6 µM (inactive); with DU-145 it was 17.2 µM (inactive); with SK-OV-3 it was 17.8 µM (inactive); in the assay with SN12C, 18.2 µM (inactive); with SK-MEL-2, 0.0509 µM (active). In addition, the values for the GI50 in the assay with SF-268 and in the assay with 786-0 were 17.2 µM (inactive) and 16.6 µM (inactive), respectively.

Take `OCCOc1ccc(-c2cc(-c3ccccn3)nc(-c3ccccn3)c2)cc1`: the GI50 is 0.277 µM (active) in the assay on MCF7; 0.115 µM (active) in the assay with HCT-116; 0.0849 µM (active) in the assay on NCI-H460; 0.222 µM (active) with SF-295; 0.398 µM (active) in the assay on CAKI-1; 0.11 µM (active) in the assay with SR. The GI50 is 0.219 µM (active) in the assay on M14; 0.499 µM (active) with HOP-92; 0.553 µM (active) in the assay on T47D; 0.172 µM (active) in the assay with A549; 0.124 µM (active) with UO-31; 0.106 µM (active) with HOP-62. The GI50 in the assay on SK-MEL-5 is 0.23 µM (active); with MDA-N it was 0.697 µM (active); in the assay on DU-145, 0.106 µM (active); with SK-OV-3, 0.308 µM (active); with SN12C, 0.195 µM (active); with SK-MEL-2, 0.115 µM (active). In addition, the GI50 in the assay with SF-268 was 0.107 µM (active); with 786-0, 0.0736 µM (active).

Consider `[N-]=[N+]=CC(=O)C1CCCN1C(=O)c1ccccc1` (stereo not given), for which the GI50 in the assay with MCF7, with HCT-116, in the assay with NCI-H460, in the assay with SF-295, with CAKI-1 and with SR was > 10 µM (inactive) in each case. The GI50 with M14, in the assay with HOP-92, with T47D, in the assay with A549, with UO-31 and in the assay with HOP-62 was > 10 µM (inactive) each time. Also, the GI50 with SK-MEL-5, in the assay on MDA-N, in the assay with DU-145, in the assay on SK-OV-3, with SN12C and in the assay with SK-MEL-2 was > 10 µM (inactive) each time. Besides, the GI50 in the assay with SF-268 and in the assay with 786-0 was > 10 µM (inactive) each time.

Take `CCCCS(=O)(=O)CCC(N)P(=O)(O)O` (stereo not given): the GI50 with MCF7, in the assay on HCT-116, with NCI-H460, in the assay on SF-295, in the assay with CAKI-1 and in the assay with SR was > 100 µM (inactive) each time. Besides, the GI50 in the assay with M14, in the assay with HOP-92, in the assay on T47D, in the assay on A549, with UO-31 and with HOP-62 was > 100 µM (inactive) in each case. The GI50 in the assay with SK-MEL-5, with MDA-N, in the assay on DU-145, in the assay with SK-OV-3, in the assay with SN12C and in the assay on SK-MEL-2 was > 100 µM (inactive) each time. Further, the GI50 in the assay on SF-268 and in the assay on 786-0 was > 100 µM (inactive) throughout.

`O=S(=O)(O)CCCc1cccc2ccccc12`: the GI50 with MCF7, in the assay with HCT-116, in the assay with NCI-H460, in the assay on SF-295, in the assay on CAKI-1 and in the assay with SR was > 100 µM (inactive) each time. Also, the GI50 in the assay on M14, with HOP-92, in the assay on T47D, with A549, in the assay with UO-31 and in the assay on HOP-62 was > 100 µM (inactive) each time. The GI50 in the assay with SK-MEL-5, in the assay with MDA-N, with DU-145, with SK-OV-3, in the assay on SN12C and with SK-MEL-2 was > 100 µM (inactive) throughout. The GI50 with SF-268 and in the assay with 786-0 was > 100 µM (inactive) in each case.

For `C=C(Cl)[C@@](Cl)(CBr)CC[C@@H](Br)C(C)(C)Cl`, the GI50 in the assay on MCF7 is 0.249 µM (active); in the assay with HCT-116 it was 0.25 µM (active); in the assay on NCI-H460, 0.108 µM (active); in the assay with SF-295, 0.207 µM (active); in the assay with CAKI-1, 0.467 µM (active); in the assay with SR, 15.4 µM (inactive). The GI50 in the assay with M14 was 10.8 µM (inactive); in the assay with HOP-92, 0.292 µM (active); with T47D it was 0.153 µM (active); in the assay with A549 it was 1.43 µM (inactive); in the assay with UO-31 it was 0.834 µM (active); in the assay on HOP-62 it was 0.103 µM (active). Also, the GI50 is 2.67 µM (inactive) with SK-MEL-5; 0.255 µM (active) with MDA-N; 0.664 µM (active) in the assay with DU-145; 9.16 µM (inactive) in the assay on SK-OV-3; 2.11 µM (inactive) in the assay with SN12C; 0.458 µM (active) in the assay on SK-MEL-2. Further, the GI50 in the assay on SF-268 was 0.251 µM (active); with 786-0 it was 0.0603 µM (active).

Turning to `[N-]=[N+]=NCC(=O)c1cnc(O)nc1O`, the GI50 in the assay on MCF7, with HCT-116, in the assay with NCI-H460, in the assay on SF-295, in the assay with CAKI-1 and with SR was > 100 µM (inactive) in each case. Besides, the GI50 with M14, in the assay with HOP-92, with T47D, in the assay on A549, in the assay with UO-31 and in the assay with HOP-62 was > 100 µM (inactive) in each case. For the same compound, the GI50 in the assay on SK-MEL-5, in the assay on MDA-N, with DU-145, with SK-OV-3, with SN12C and in the assay with SK-MEL-2 was > 100 µM (inactive) each time. Besides, the GI50 in the assay on SF-268 and in the assay with 786-0 was > 100 µM (inactive) in each case.
